Measurements from patent US9464092B2, “Transient protection of normal cells during chemotherapy” (G1 Therapeutics, Inc., priority 2013, dated 2016).
Where two headings read alike, the source gives them in different places.

Assays:
[1] = test system: tHS68 cells (CDK4/6-dependent cell line); experiment: Cell cycle arrest by propidium iodide flow cytometry, tHS68; format: cell-based, human; details: 300 nM, 24 hours
Source text: To test the ability of Cdk4/6 inhibitors to induce a clean G1-arrest, a cell based screening method was used consisting of two Cdk4/6-dependent cell lines (tHS68 and WM2664; Rb-positive) and one Cdk4/6-independent (A2058; Rb-negative) cell line. […] At the conclusion of the experiment, cells were harvested, fixed, and stained with propidium iodide (a DNA intercalator), which fluoresces strongly red (emission maximum 637 nm) when excited by 488 nm light. Samples were run on Dako Cyan flow cytometer and >10,000 events were collected for each sample. Data were analyzed using FlowJo 2.2 software developed by TreeStar, Inc.

[2] = Metabolic stability in liver microsomes; format: in vitro ADME, human, dog, rat, monkey, and mouse; details: each of the species tested
Method: Human, mouse, and dog liver microsomes were purchased from Xenotech, and Sprague-Dawley rat liver microsomes were prepared by Absorption Systems. The reaction mixture comprising 0.5 mg/mL of liver microsomes, 100 mM of potassium phosphate, pH 7.4, 5 mM of magnesium chloride, and 1 uM of test compound was prepared. The test compound was added into the reaction mixture at a final concentration of 1 uM. An aliquot of the reaction mixture (without cofactor) was incubated in shaking water bath at 37 deg. C. for 3 minutes. The control compound, testosterone, was run simultaneously with the test compound in a separate reaction. The reaction was initiated by the addition of cofactor (NADPH), and the mixture was then incubated in a shaking water bath at 37 deg. C. Aliquots (100 μL) were withdrawn at 0, 10, 20, 30, and 60 minutes for the test compound and 0, 10, 30, and 60 minutes for testosterone. […] Test compound samples were analyzed using the Orbitrap high resolution mass spectrometer to quantify the disappearance of parent test compound and detect the appearance of metabolites. […] Half-lives were calculated using GraphPad software, fitting to a single-phase exponential decay equation.
When calculated half-life was longer than the duration of the experiment, the half-life was expressed as >the longest incubation time. The calculated half-life is also listed in parentheses. […]

[3] = test system: RB-negative SCLC cell lines (H69, H82, H209, H345, NCI417, or SHP-77); experiment: EdU proliferation, RB-negative SCLC cell lines; details: 24 hours
[4] = test system: telomerized human diploid fibroblasts (tHDFs); experiment: Caspase 3/7 activation in tHDF cells with chemotherapy; format: cell-based; details: pretreatment before carboplatin, doxorubicin, etoposide, camptothecin, and paclitaxel
Method: (§1) Cell survival was determined by Cell TiterGlo assay per manufacturer's recommendations. For both γ-H2AX and caspase 3/7 assays, cells were plated and allowed to become adherent for 24 hours. […] For γ-H2AX, cells were harvested for analysis 8 hours after chemotherapy exposure. For the γ-H2AX assay, cells were fixed, permeabilized, and stained with anti-γ-H2AX as per the γ-H2AX Flow Kit (Millipore) and quantitated by flow cytometry. Data was analyzed using FlowJo 2.2 software developed by TreeStar, Inc. For the in vitro caspase 3/7 assay, cells were harvested 24 hours post chemotherapy treatment. Caspase 3/7 activation was measured using the Caspase-Glo® 3/7 Assay System (Promega) per manufacturer's recommendations.

[5] = test system: renal proximal tubule epithelial cells; experiment: Caspase 3/7 activation in renal proximal tubule epithelial cells with cisplatin; format: cell-based, human; details: 30 nM-1 uM with cisplatin 25 uM, 50 uM, or 100 uM
Method: Normal renal proximal tubule epithelial cells were obtained from American Type Culture Collection (ATCC, Manassas, Va.). Cells were grown in an incubator at 37° C. in a humidified atmosphere of 5% CO2 in Renal Epithelial Cell Basal Media (ATCC) supplemented with Renal Epithelial Cell Growth Kit (ATCC) in 37° C. humidified incubator. […] Caspase 3/7 activation was measured 24 hours later using the Caspase-Glo 3/7 Assay System (Promega, Madison, Wis.) by following the manufacturer's instructions.
Normal renal proximal tubule epithelial cells were obtained from American Type Culture Collection (ATCC, Manassas, Va.). Cells were grown in an incubator at 37° C. in a humidified atmosphere of 5% CO2 in Renal Epithelial Cell Basal Media (ATCC) supplemented with Renal Epithelial Cell Growth Kit (ATCC) in 37° C. humidified incubator. […] For the γ-H2AX assay, cells were fixed, permeabilized, and stained with anti-γ-H2AX as per the γ-H2AX Flow Kit (Millipore) and quantitated by flow cytometry. Data was analyzed using FlowJo 2.2 software developed by TreeStar, Inc. Caspase 3/7 activation was measured using the Caspase-Glo 3/7 Assay System (Promega, Madison, Wis.) by following the manufacturer's instructions.

[6] = Mouse pharmacokinetics (oral gavage / intravenous); format: in vivo, mice; details: mouse
[7] = test system: hematopoietic cells (bone marrow); experiment: EdU incorporation in hematopoietic cell lineages of C57Bl/6 mice; format: in vivo; details: 150 mg/kg oral gavage, 12 hours
Method: Ten-hours later, all mice were given a single i.p. injection of 100 mcg EdU (5-ethynyl-2′-deoxyuridine) to label cells in S-phase of the cell cycle. All treated mice were euthanized 2 hours after EdU injection, bone marrow cells were harvested and processed for flow cytometric analysis of EdU-incorporation (FIG. 13).

tHS68 human fibroblasts = experiment: Protection from chemotherapy-induced cell death (Cell TiterGlo); format: cell-based; details: etoposide 5 μM or carboplatin 100 μM
Method: as §1

blood cell counts = experiment: 5FU-induced myelosuppression, single dose; format: in vivo, FVB/n female mice; details: 150 mg/kg oral, 30 minutes before 5FU 150 mg/kg i.p.
Method: Complete blood cell counts were measured every two days starting on day six.

CN1CCN(c2ccc(Nc3ncc4cc5n(c4n3)C3(CCCCC3)CNC5=O)nc2)CC1 [Compound T]
effect on S-phase peak [1]: causes a loss of the S-phase peak | half-life in liver microsomes compared with PD0332991 [2]: shorter half-life than PD0332991 | effect on proliferation (EdU, percent of cells in S-phase) [3]: does not affect the growth of the Rb-negative cell lines | caspase 3/7 activation [4]: robust decrease in caspase 3/7 activation in a dose-dependent manner | caspase 3/7 activation [5]: dose-dependent reduction in caspase 3/7 activation | F [6]: 80% | half-life ([6]; plasma, po, 30 mg/kg, 30 mg/kg oral gavage, read-out: t1/2 p.o. (converted)): 5 h | half-life ([6]; plasma, po, 30 mg/kg, read-out: plasma half-life following oral administration): 3 to 5 h | bioavailability ([6]; plasma, po, 30 mg/kg, read-out: oral bioavailability (F (%))): 52 to 80% | AUC(0-inf) ([6]; plasma, iv, 10 mg/kg i.v.): 1.3 µM·h | clearance ([6]; plasma, iv, 10 mg/kg i.v.): 35 mL/min/kg | Vd ([6]; plasma, iv, 10 mg/kg i.v., read-out: Vss): 2.7 L/kg | AUC ([6]; plasma, 30 mg/kg oral gavage): 2.9 µM·h | Cmax ([6]; plasma, 30 mg/kg oral gavage): 2500 nM | Tmax ([6]; plasma, 30 mg/kg oral gavage): 1 h | inhibition of hematopoietic stem cells (HSC), EdU [7]: 74% | inhibition of multipotent progenitors (MPP), EdU [7]: 90% | reduction in EdU+ cell frequency, B cell progenitors [7]: > 80% | reduction in EdU+ cell frequency, Mac1+G1+ myeloid cells [7]: 46% | reduction in EdU+ cell frequency, T cell progenitors [7]: > 99% | reduction in EdU+ cell frequency, Ter119+ erythroid cells [7]: 58% | reduction in EdU+ cell frequency, lineage restricted myeloid (CMP, GMP and MEP) and lymphoid progenitors (CLP) [7]: 76-92% | reduction of EdU+ cell frequency in unfractionated whole bone marrow cells [7]: ~70% | protection from chemotherapy-induced cell death (cell survival) (tHS68 human fibroblasts): selective protection from carboplatin and etoposide-induced cell death | blood cell counts on day 14 after 5FU (blood cell counts): significant protection of each cell type at Day 14 | recovery of hematopoietic cell lineages after 5FU (blood cell counts): more rapid recovery
